This is an account of results in ChEMBL document CHEMBL5661955, “ASAP - In vitro cytotoxicity” (2024).

“And” between values parts separate entries of the source, which are not always exact repeats. Identical values can stand only once. Where only a bound is given, the exact number is not on record here.

Data set [1] can be described thus: Functional assay to measure dose dependent changes in cell viability from drug treatment in Vero E6 miRFP670 cells (cotreated with P-gp inhibitor, CP100356) that are infected with Dengue virus type 2 New Guinea C. […] Cytotoxicity is reported via via analysis of DAPI count using high-content imager. The assay has been performed by KU Leuven. In kind it is toxicity, cell-based, Vero C1008. To be noted: chlorocebus sabaeus.

Data set [2] can be described thus: Functional CPE-based assay to measure dose dependent changes in cell viability from drug treatment in Huh-7 cells. Cells are treated with antiviral candidates that have been serially diluted. Cytotoxicity is reported via analysis of MTT/ MTS assays in uninfected cells. The assay has been performed by National Institute of Allergy and Infectious Diseases. In kind it is toxicity. As to conditions: human.

A short description of data set [3]: Functional metabolic assay to measure dose dependent changes in cell viability from drug treatment in Vero E6/TMPRSS2 cells (cotreated with P-gp inhibitor, Elacridar). […] Cytotoxicity is reported via measuring absorbance and analysis of MTT/MTS assays in uninfected cells. The assay has been performed by Icahn School of Medicine at Mount Sinai. Type of data set: toxicity, cell-based, VeroE6/TMPRSS2. As to conditions: chlorocebus sabaeus, p-gp concentration 2 uM.

Data set [4] can be described thus: Functional metabolic assay to measure dose dependent changes in cell viability from drug treatment in Vero E6/TMPRSS2 cells. Cells are treated with antiviral candidates that have been serially diluted. Cytotoxicity is reported via measuring absorbance and analysis of MTT/MTS assays in uninfected cells. The assay has been performed by Icahn School of Medicine at Mount Sinai. In kind it is toxicity, cell-based, VeroE6/TMPRSS2. To be noted: chlorocebus sabaeus; for CC50: Vero E6/TMPRSS2 cells; for CC10: veroe6/tmprss2.

A short description of data set [5]: Functional CPE-based assay to measure dose dependent changes in cell viability from drug treatment in Vero E6 miRFP670 cells. Cells are treated with antiviral candidates that have been serially diluted. Cytotoxicity is reported via analysis of MTS assays in uninfected cells. The assay has been performed by KU Leuven. Type of data set: toxicity, Vero C1008. As to conditions: chlorocebus sabaeus.

A short description of data set [6]: Functional assay to measure dose dependent changes in cell viability from drug treatment in Vero E6 miRFP670 cells that are infected with Dengue virus type 2 New Guinea C. Cells are treated with antiviral candidates that have been serially diluted. Cytotoxicity is reported via via analysis of DAPI count using high-content imager. The assay has been performed by KU Leuven. To be noted: chlorocebus sabaeus. Type of data set: toxicity, cell-based, Vero C1008.

Data set [7] is described as follows: Functional CPE-based assay to measure dose dependent changes in cell viability from drug treatment in Vero E6 miRFP670 cells (cotreated with P-gp inhibitor, CP100356). Cells are treated with antiviral candidates that have been serially diluted. Cytotoxicity is reported via analysis of MTS assays in uninfected cells. The assay has been performed by KU Leuven. As to conditions: chlorocebus sabaeus, Vero E6 miRFP670 cells, with CP100356 (P-gp inhibitor, concentration not stated). Type of data set: toxicity, Vero C1008.

The nature of data set [8]: Functional metabolic assay to measure dose dependent changes in cell viability from drug treatment in HeLa cells. Cells are treated with antiviral candidates that have been serially diluted. Cytotoxicity is reported via analysis of MTT/MTS assays in uninfected cells. The assay has been performed by KU Leuven. Type of data set: toxicity, cell-based. As to conditions: human.

The mark [9] stands for this setting: with CP100356 (P-gp inhibitor, concentration not stated), p-gp concentration 500 nM.
[10] abbreviates: Vero E6/TMPRSS2 cells, with Elacridar (P-gp inhibitor, concentration not stated).
Where [11] appears, read: vero c1008, p-gp concentration 500 nM.

For the compound `CC(C)CNC(=O)c1cc(Cl)ccc1NS(=O)(=O)c1ccc(Oc2ccccc2Cl)cc1`, the CC50 in data set [1] (setting [9]) is above 10 µM; in data set [2], 6.5 µM; in data set [3] (veroe6/tmprss2) it was above 50 µM; in data set [4], above 50 µM; in data set [5] (Vero E6 miRFP670 cells), 4.76 µM. For the same compound, the CC10 in data set [4] was above 50 µM.

Take `CC1(C)Cc2sc(NC(=O)Cc3ccc(S(N)(=O)=O)cc3)c(C#N)c2CN1CC1CCCCC1`: the half-maximal cytotoxic concentration (CC50) in data set [2] was 16 µM; in data set [5] (Vero E6 miRFP670 cells), above 50 µM.

`O=C(Nc1ccc2c(c1)CNC2)c1cc(Cl)cc2[nH]ncc12`: the half-maximal cytotoxic concentration (CC50) is 5.47 µM in data set [1] (vero c1008, p-gp concentration 100 nM); below 0.023 µM in data set [3] (setting [10]); 6.72 µM in data set [6]; 49.7 µM in data set [5] (Vero E6 miRFP670 cells); above 50 µM in data set [5] (vero c1008); above 50 µM in data set [7] (p-gp concentration 100 nM). The CC10 in data set [3] (veroe6/tmprss2) is above 50 µM.

Regarding `O=C(NCC(F)(F)F)c1cc(Cl)c(F)cc1NS(=O)(=O)c1ccc(Oc2ccccc2Cl)cc1`, the CC50 in data set [1] (setting [11]) was 5.65 µM; in data set [1] (setting [9]), above 10 µM; in data set [2], 1.9 µM; in data set [5] (Vero E6 miRFP670 cells), 3.98 µM.

In data set [8] (HeLa cells), `O=C(Nc1ccc2c(c1)CNC2)c1ccnc2[nH]ccc12` yielded a CC50 above 50 µM. Moreover, the CC10 in data set [8] (hela) is above 50 µM.

As for `CC(C)CNC(=O)c1cc(Cl)c(F)cc1NS(=O)(=O)c1ccc(Oc2ccccc2Cl)cc1`, the CC50 was 5.35 µM in data set [1] (setting [11]); above 10 µM in data set [1] (setting [9]); 3.1 µM in data set [2]; 49.4 µM in data set [3] (setting [10]); 38.1 µM in data set [3] (veroe6/tmprss2); above 50 µM in data set [4]. Also, the cytotoxic concentration (CC50) in data set [5] (Vero E6 miRFP670 cells) is 4.96 µM; in data set [5] (vero c1008), 5.79 µM and 3.21 µM. For the same compound, the CC10 in data set [4] was above 50 µM.

Take `CCCC[C@H](NC(C)=O)C(=O)N[C@H](C(=O)NCc1ccc(C(N)=O)cc1)c1ccc(OCc2ccccc2)cc1`: the CC50 in data set [1] (setting [9]) was above 10 µM; in data set [2], 15 µM; in data set [3] (setting [10]), above 50 µM. Moreover, the CC10 in data set [3] (veroe6/tmprss2) was above 50 µM.

As for `COc1cc(N[C@@H](C(=O)N2CCc3ccc(OC(F)(F)F)cc32)c2ccc(Cl)cc2)cc(OCCCC(=O)O)c1`, the cytotoxic concentration (CC50) in data set [2] is 19 µM; in data set [3] (veroe6/tmprss2) it was > 10 µM and 37.7 µM; in data set [5] (vero c1008), > 50 µM and 19.7 µM and 11.3 µM; in data set [7] (p-gp concentration 500 nM), 11.1 µM. Further, the CC10 in data set [3] (veroe6/tmprss2) is > 10 µM and 7.237 µM.

Turning to `c1cc(C2CCN(Cc3c[nH]c4ccccc34)CC2)c2ccncc2c1`, the CC50 in data set [1] (setting [11]) was above 50 µM; in data set [2] it was 32 µM; in data set [3] (setting [10]), above 50 µM; in data set [4] it was above 50 µM. In addition, the CC10 in data set [3] (veroe6/tmprss2) and in data set [4] was above 50 µM throughout.

`COc1cc(N[C@@H](C(=O)c2c[nH]c3ccc(OC(F)(F)F)cc23)c2ccc(Cl)cc2OC)cc(S(C)(=O)=O)c1`: the CC50 is 5 µM in data set [2], above 10 µM in data set [3] (setting [10]), above 10 µM in data set [4] and 1.49 µM in data set [7] (p-gp concentration 500 nM). The compound also registered a CC10 in data set [4] above 10 µM.

On to `O=C(O)c1cc(Oc2ccc(F)cc2)c(F)cc1NS(=O)(=O)c1ccc(Oc2ccccc2Cl)cc1`, for which the 50% cytotoxic concentration (CC50) is 5.31 µM in data set [1] (setting [9]), 20 µM in data set [2], above 50 µM in data set [3] (setting [10]) and 44 µM in data set [3] (veroe6/tmprss2).

On to `O=C(Nc1ccc2c(c1)B(O)OC2)c1cccc(OCc2c(Cl)cccc2Cl)c1`, for which the CC50 in data set [1] (setting [9]) is above 10 µM; in data set [2] it was 1.9 µM; in data set [4] it was above 50 µM. The CC10 in data set [4] is above 50 µM.

For `NCc1ccc(-c2ncc(OCC3CCNCC3)nc2-c2ccc(-c3ccoc3)cc2)cc1`, the CC50 is 1.7 µM in data set [1] (setting [9]), 5.5 µM in data set [2], 49.9 µM in data set [3] (setting [10]) and above 50 µM in data set [4]. Also, the CC10 was 39.762 µM in data set [3] (veroe6/tmprss2) and above 50 µM in data set [4].
